# Measurements as given in the NIST ThermoML archive (doi:10.1021/je8002223).
# Numbers after ± are expanded uncertainties.
# Legend:
# [1] = Molar enthalpy of transition or fusion
# [2] = DTA
Molar enthalpy of transition or fusion ([1]; Crystal),Normal melting temperature ([2]; Crystal),Molar enthalpy of transition or fusion ([1]; Crystal 1),Molar enthalpy of transition or fusion ([1]; Crystal 2),Triple point temperature ([2]; Crystal 1),Triple point temperature ([2]; Crystal 2),SMILES
13.3 ± 1.43 kcal/mol,813 ± 2 °C,,,,,[Cl][Ce]([Cl])[Cl] [cerium trichloride]
,,4.85 ± 0.574 kcal/mol,0.908 ± 0.191 kcal/mol,918 ± 2 K,743 ± 2 K,[Cl-].[Cs+] [cesium chloride]
